Earlier results on one molecule are cited in patent publication US20210388441A1, “PREDICTING CHRONIC ALLOGRAFT INJURY THROUGH ISCHEMIA-INDUCED DNA METHYLATION” (VIB VZW, priority 2017, published 2021).

The test system of the data set is macrophage infiltration in kidneys. To be noted: through a decrease of macrophage infiltration in for instance kidneys.

With `CC(=O)C(C)CCC(=O)O` (stereo not shown) [ERG240], the inflammation entry was “reduced inflammation”.
